Test results from US20220105061A1, “COMPOSITIONS AND METHODS FOR TREATING RESPIRATORY INSUFFICIENCY” (The Regents of the University of California, priority 2019, published 2022).
“Also recorded” adds a separate entry of the source.

System: Serpinh1 Prx1-cre conditional KO mice
Experiment: Prenatal 4-PBA treatment of pregnant females in the Serpinh1 Prx1-cre conditional KO (Hsp47-Prx1) lethal osteogenesis imperfecta mouse model
Format: in vivo
Details: for perinatal lethality due to respiratory insufficiency: Hsp47-Prx1 model
Description: Mutations in SERPINH1 (HSP47) cause osteogenesis imperfecta (OI). Patients with mutations in these genes are severely affected by bone fragility and pulmonary dysfunction. Serpinh1 Prx1-cre conditional KO mice were generated. These animals die immediately after birth due to respiratory insufficiency. The Prx1 gene is expressed in lungs' and limbs' mesenchymal lineages, causing phenotypes in both the pulmonary and skeletal system. Right after birth, all affected animals become cyanotic and die.
Animals were treated with 4-PBA. At least 12 pregnant females (SerpinH1−/− crossed with males Serpinh1+/−Prx1 carriers), who were expected to give birth to 25% affected pups (Serpinh1−/−Prx1 positive) were treated with 1 gr/Kg/day of 4-PBA in drinking water since the gestational age of E14 until birth.
Respiratory function was analyzed in treated vs. control animals by cyanotic observations, X-rays, lung floatability test, whole body oxymetry and histology. Multiple dosages were tested: 1, 2 and 5 gr/Kg/day, 1 gr/Kg/day being the minimum dosage to obtain the effect in 100% of individuals. 5 gr/Kg/day was discarded as 2 of 12 treated pups in two independent litters died without presenting the phenotype and showing hematomas. Other pregnancy stages were also tested starting the treatment from E10 to E17.
4-PBA treatment rescue perinatal lethality due to respiratory insufficiency in Hsp47-Prx1 model. A. X-Rays show a dark spot corresponding with air in the lungs in healthy animals (red arrows). […] B. Histological architecture is collapse in mutants (B′) but rescued in 4-PBA treated animals (B″). C. Mutants show cyanotic aspect at birth (C′). This is also rescued in 4-PBA treated animals (C″). D. Oxygen levels are rescued in treated mutants as observed by oxymeter measures right after birth.

O=C(O)CCCc1ccccc1 [4-PBA, 4-phenylbutyric acid]
individuals in which the effect was obtained (1 gr/Kg/day): 100% | survival of pups with the affected genotype born from treated mothers (1 gr/Kg/day in drinking water to pregnant females, E14 until birth, untreated affected pups die immediately after birth): around 24 hours | treated pups that died without presenting the phenotype and showing hematomas (5 gr/Kg/day, two independent litters, dosage discarded): 2 of 12 | perinatal lethality due to respiratory insufficiency (prenatal treatment): rescue | perinatal lethality due to respiratory insufficiency (prenatal treatment, listed as 4-phenylbutyric): rescues | lung histological architecture (collapsed in mutants, FIG. 1B): rescued | minimum dosage to obtain the effect in 100% of individuals (dosages tested: 1, 2 and 5 gr/Kg/day): 1 gr/Kg/day | embryo viability (mouse, in vivo): possible decreased embryo viability | unproductive pregnancies of 4 plugged females (mouse, in vivo): two | cyanosis of treated affected animals (prenatal treatment, cyanotic observations at birth): did not become cyanotic; also recorded: rescued | oxygen levels (whole body oxymetry) (prenatal treatment, oxymeter measures right after birth): normal levels of oxygen; also recorded: rescued | air in the lungs on X-rays (treated mutants, FIG. 1A): show air in the lungs | lung function improvement (treatments performed between E13 to E17): observed similarly
